{"source": "patent US20250327028A1", "about": "“ENGINEERED PLATELETS AS TARGETED PROTEIN DEGRADERS” (Wisconsin Alumni Research Foundation, priority 2024, published 2025)", "key": {"[1]": {"target": "T1, BRD4 (Mus musculus, UniProt Q9ESU6)", "T1 construct": "endogenous in cells; host or cells: 4T1", "test": "Immunoblot analysis of BRD4 degradation in 4T1 cells after free HAC treatment", "type": "cell-based, murine", "conditions": "4T1 cells, lower or higher effective concentrations, 12 h", "excerpt": "(§1) Immunoblot analysis: Immunoblot analysis was used to evaluate the expression of BRD4, HSP90, HSP90a, and PD-L1 in 4T1, WT MDA-MB-231, HSP90α-KO MDA-MB-231 or PEA-10 cells after various treatments and also served as the detection method for IP or co-IP experiments. The procedures for preparing IP or co-IP samples were indicated in the relevant experimental parts.\n(§2) Sample preparation for various cancer cells after free HAC treatment: Various cells, including 4T1, WT MDA-MB-231, HSP90α-KO MDA-MB-231, or PEA-10 cells, were seeded in 6-well culture plates with a density of 5×10^4 cells in each well and cultured for 24 h. Then, if HAI pretreatment was performed, the cells were incubated in the HAI-containing blank medium at different concentrations for 2 h and washed with PBS twice before the following treatments. The medium in the corresponding wells was replaced with 1 mL of blank medium containing the DMSO vehicle, HACs, or the combinations of various free ligands at the predetermined concentrations. After incubation for the indicated time points, cells were washed with PBS and lysed on ice with the relevant lysis buffer containing PMSF (1 mM) and the phosphatase inhibitor cocktail for 30 min. As for the conditioned medium (CM), the culturing complete medium of the corresponding cancer cells in each well was collected after 24-h incubation and subjected to centrifugation at 2000 rpm for 5 min to obtain the supernatant. The filtrate of the supernatants was collected following filtration over a 0.45 μm filter, serving as the CM. Regarding the cell samples for BRD4 detection, the lysis buffer containing HEPES-KOH (pH=7.5, 10 mM), NaCl (500 mM), EDTA (5 mM), NP-40 (1%), and SDS (0.1%) was used with the indicated PMSF and phosphatase inhibitor cocktail. As for PD-L1 detection, RIPA buffer (Thermo Fisher Scientific/J63306.AP) was used with the indicated PMSF and phosphatase inhibitor cocktail.\nGeneral procedures for immunoblot analysis: After a 30-min lysis, the lysates were centrifuged at 10,000 g for 10 minutes at 4° C., and the corresponding supernatants were collected, followed by quantification of the total proteins in the supernatant through the BCA assay. Afterward, the proteins in the supernatant were mixed with the loading buffer and heated at 95° C. for 15 min. Equal amounts of proteins from different samples ([…]) were loaded into the Bis-Tris gel formulated with Bis-Tis buffer, 30% acrylamide/Bis, 10% ammonium persulfate (APS) solution, and TEMED. The separated proteins were transferred to polyvinylidene fluoride (PVDF) membranes before the membranes were blocked with 5% nonfat milk in PBS-T. Next, the PVDF membranes were incubated with primary antibodies overnight at 4° C., if necessary, followed by the incubation with the goat-anti-rabbit IgG H & L (HRP) secondary antibodies at room temperature for 2 h. Finally, the bands were treated with electrochemiluminescence (ECL) western blot substrate, detected by the iBright™ imaging system and quantified with ImageJ software. 8% Bis-Tris gels were used for BRD4 detection, and 10% gels were adopted to analyze PD-L1."}, "[2]": {"target": "T2, BRD4 (Homo sapiens, UniProt O60885)", "T2 construct": "endogenous in cells; host or cells: WT MDA-MB-231 (ATCC)", "test": "Immunoblot analysis of BRD4 degradation in WT MDA-MB-231 cells after free HAC treatment", "type": "cell-based", "conditions": "lower or higher effective concentrations, 12 h", "excerpt": "as §1\nas §2, with “Regarding the cell samples for BRD4 detection, the lysis buffer containing HEPES-KOH (pH=7.5, 10 mM), NaCl (500 mM), EDTA (5 mM), NP-40 (1%), and SDS (0.1%) was used with the indicated PMSF and phosphatase inhibitor cocktail. As for PD-L1 detection, RIPA buffer (Thermo Fisher Scientific/J63306.AP) was used with the indicated PMSF and phosphatase inhibitor cocktail.” left out\nGeneral procedures for immunoblot analysis: After a 30-min lysis, the lysates were centrifuged at 10,000 g for 10 minutes at 4° C., and the corresponding supernatants were collected, followed by quantification of the total proteins in the supernatant through the BCA assay. […] Finally, the bands were treated with electrochemiluminescence (ECL) western blot substrate, detected by the iBright™ imaging system and quantified with ImageJ software. […]"}}}
{"smiles": "Cc1sc2c(c1C)C(c1ccc(Cl)cc1)=N[C@H](CC(=O)NCc1cn(CCCC(=O)N(CC#N)S(=O)(=O)c3ccc(C(=O)NCCCn4c(Sc5cc6c(cc5I)OCO6)nc5c(N)ncnc54)cc3)nn1)c1nnc(C)n1-2", "note": "[iHACepi, (R)—N-(3-(6-amino-8-((6-iodobenzo[d][1,3]dioxol-5-yl)thio)-9H-purin-9-yl)propyl)-4-(N-(4-(4-((2-(4-(4-chlorophenyl)-2,3,9-trimethyl-6H-thieno[3,2-f][1,2,4]triazolo[4,3-a][1,4]diazepin-6-yl)acetamido)methyl)-1H-1,2,3-triazol-1-yl)butanoyl)-N-(cyanomethyl)sulfamoyl)benzamide]", "values": [{"measurement": "BRD4 degradation compared to iHAC", "setting": "[1]", "result": "almost no substantial BRD4 degradation"}, {"measurement": "BRD4 degradation compared to iHAC", "setting": "[2]", "result": "almost no substantial BRD4 degradation"}]}
